Assay: In vitro release kinetics: cleavage rate of the reversible bond from the conjugates
Format: physicochemical
Details: pH 7.4, 37° C., aqueous buffer (48 mM sodium phosphate, 20% acetonitrile), disappearance of the conjugate by LCMS (UV detection), curve fitting, read-out: t1/2 (pH 7.4) (converted)
Procedure: The cleavage rate of the reversible bond from conjugates 8a-b was monitored at pH 7.4 and 37° C. in aqueous buffer (pH 7.4, 48 mM sodium phosphate, 20% acetonitrile). Disappearance of the conjugate was determined by LCMS (UV detection) and fitted with curve fitting software to obtain the half-life of the release.

Row | Structure (SMILES) | half-life [h]
1 | CNCCCN(C)C(=O)Oc1ccc(C(C)[N+](C)(C)CCc2ccccc2)cc1 (centres unmarked) [Compound 8a] | 1.3
2 | CNCCCN(C)C(=O)Oc1ccc(C(C)[n+]2cccc3ccccc32)cc1 (centres unmarked) [Compound 8b] | 1.8

— US20220304993A1, “CONJUGATES OF AN ELECTRON-DONATING NITROGEN OR TERTIARY AMINE […]” (Ascendis Pharma A/S, priority 2019, published 2022)
